Active and inactive are the calls of the source. The rule behind the calls is not given here.
Assays:
[1] = target: T1, MAP kinase p38 (Homo sapiens, UniProt O15264+Q15759+Q16539+P53778); experiment: Inhibitory activity against induction of IL-1-beta release in PBMCs; type: functional
[2] = target: T1, MAP kinase p38; experiment: Inhibitory activity against TNF-alpha release in PBM cells; type: functional, cell-based
[3] = target: T1, MAP kinase p38; experiment: Inhibitory activity against mitogen-activated protein kinase p38 at 10 e-4 to 10 e-8 M concentration; type: protein assay
[4] = target: T2, CYP1A2 (Homo sapiens, UniProt P05177); experiment: Inhibition of Cytochrome P450 1A2 at 10 uM; type: ADME
T2 sequence (P05177 whole entry): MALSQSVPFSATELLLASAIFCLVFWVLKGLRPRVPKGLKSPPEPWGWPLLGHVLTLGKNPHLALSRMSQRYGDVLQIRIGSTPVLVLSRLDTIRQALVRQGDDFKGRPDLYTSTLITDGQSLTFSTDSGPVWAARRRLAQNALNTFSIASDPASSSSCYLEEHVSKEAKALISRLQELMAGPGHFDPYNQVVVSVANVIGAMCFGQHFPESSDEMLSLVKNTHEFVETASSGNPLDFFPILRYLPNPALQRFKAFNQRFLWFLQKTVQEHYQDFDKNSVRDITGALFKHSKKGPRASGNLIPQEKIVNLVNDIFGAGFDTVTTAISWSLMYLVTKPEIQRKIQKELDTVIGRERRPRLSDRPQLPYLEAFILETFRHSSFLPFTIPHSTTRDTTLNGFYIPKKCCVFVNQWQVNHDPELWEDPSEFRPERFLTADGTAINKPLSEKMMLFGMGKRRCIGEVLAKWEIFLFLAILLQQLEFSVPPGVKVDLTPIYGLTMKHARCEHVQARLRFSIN

[5] = target: CYP2C9 (Homo sapiens, UniProt P11712); experiment: Inhibition of Cytochrome P450 2C9 at 10 uM; type: ADME
[6] = target: CYP2D6 (Homo sapiens, UniProt P10635); experiment: Inhibition of Cytochrome P450 2D6 at 10 uM; type: ADME
[7] = target: T1, MAP kinase p38; experiment: Inhibition of p38-related TNF-alpha release by whole blood cells at 10 e-4 to 10 e-8 M; type: functional
[8] = target: CYP2C19 (Homo sapiens, UniProt P33261); experiment: Inhibition of Cytochrome P450 2C19 at 10 uM; type: ADME
[9] = target: T1, MAP kinase p38; experiment: Inhibition of p38-related IL1-beta release by whole blood cells at 10 e-4 to 10 e-8 M; type: functional
[10] = target: CYP3A4 (Homo sapiens, UniProt P08684); experiment: Inhibition of Cytochrome P450 3A4 at 10 uM; type: ADME
[11] = target: T1, MAP kinase p38; experiment: Inhibition of p38-related TNF-alpha release by PBMC cells at 10 e-4 to 10 e-8 M (no activity); type: functional, cell-based
[12] = target: T1, MAP kinase p38; experiment: Inhibition of p38-related IL1-beta release by PBMC cells at 10 e-4 to 10 e-8 M (no activity); type: functional, cell-based

Chain of CYP2C19 (P33261 whole entry): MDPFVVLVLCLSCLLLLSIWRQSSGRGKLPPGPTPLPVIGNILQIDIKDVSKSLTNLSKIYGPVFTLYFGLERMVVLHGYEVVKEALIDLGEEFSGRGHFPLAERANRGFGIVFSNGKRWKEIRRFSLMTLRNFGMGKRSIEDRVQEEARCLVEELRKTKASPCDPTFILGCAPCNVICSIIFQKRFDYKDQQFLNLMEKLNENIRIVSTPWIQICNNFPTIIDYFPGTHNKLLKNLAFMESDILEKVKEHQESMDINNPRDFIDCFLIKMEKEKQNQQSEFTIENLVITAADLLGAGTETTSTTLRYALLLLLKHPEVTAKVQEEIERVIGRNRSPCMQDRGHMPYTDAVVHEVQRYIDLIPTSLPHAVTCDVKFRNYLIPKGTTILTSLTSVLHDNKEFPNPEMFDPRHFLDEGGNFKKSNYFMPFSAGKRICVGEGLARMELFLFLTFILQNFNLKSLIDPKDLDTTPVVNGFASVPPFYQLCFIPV
Chain of CYP2D6 (P10635 whole entry): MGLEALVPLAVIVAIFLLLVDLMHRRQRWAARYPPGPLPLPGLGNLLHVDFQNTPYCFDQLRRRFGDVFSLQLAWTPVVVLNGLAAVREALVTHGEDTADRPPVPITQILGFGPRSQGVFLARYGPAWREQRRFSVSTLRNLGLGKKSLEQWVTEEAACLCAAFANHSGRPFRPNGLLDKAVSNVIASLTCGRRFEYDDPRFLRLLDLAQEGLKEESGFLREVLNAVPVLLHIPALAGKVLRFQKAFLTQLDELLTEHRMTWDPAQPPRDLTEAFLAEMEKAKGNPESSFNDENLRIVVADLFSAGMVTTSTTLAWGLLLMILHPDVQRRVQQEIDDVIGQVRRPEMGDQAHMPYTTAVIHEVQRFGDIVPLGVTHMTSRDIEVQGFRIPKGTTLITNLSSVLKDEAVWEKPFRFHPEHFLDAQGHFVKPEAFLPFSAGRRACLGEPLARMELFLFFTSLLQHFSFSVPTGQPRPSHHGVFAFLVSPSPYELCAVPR
Chain of CYP3A4 (P08684 whole entry): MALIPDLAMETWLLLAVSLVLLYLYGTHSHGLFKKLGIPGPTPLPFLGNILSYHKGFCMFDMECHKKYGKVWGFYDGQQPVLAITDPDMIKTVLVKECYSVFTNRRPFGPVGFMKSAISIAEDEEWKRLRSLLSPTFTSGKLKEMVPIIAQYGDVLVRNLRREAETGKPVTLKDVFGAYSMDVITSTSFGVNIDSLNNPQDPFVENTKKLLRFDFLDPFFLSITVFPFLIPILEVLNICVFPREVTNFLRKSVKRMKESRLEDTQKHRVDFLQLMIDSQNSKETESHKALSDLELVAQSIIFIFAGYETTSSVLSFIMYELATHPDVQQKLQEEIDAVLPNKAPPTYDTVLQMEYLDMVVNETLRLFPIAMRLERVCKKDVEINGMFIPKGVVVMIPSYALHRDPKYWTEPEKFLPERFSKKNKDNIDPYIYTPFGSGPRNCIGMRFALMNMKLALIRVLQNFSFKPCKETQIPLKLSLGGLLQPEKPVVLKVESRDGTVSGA
Chain of CYP2C9 (P11712 whole entry): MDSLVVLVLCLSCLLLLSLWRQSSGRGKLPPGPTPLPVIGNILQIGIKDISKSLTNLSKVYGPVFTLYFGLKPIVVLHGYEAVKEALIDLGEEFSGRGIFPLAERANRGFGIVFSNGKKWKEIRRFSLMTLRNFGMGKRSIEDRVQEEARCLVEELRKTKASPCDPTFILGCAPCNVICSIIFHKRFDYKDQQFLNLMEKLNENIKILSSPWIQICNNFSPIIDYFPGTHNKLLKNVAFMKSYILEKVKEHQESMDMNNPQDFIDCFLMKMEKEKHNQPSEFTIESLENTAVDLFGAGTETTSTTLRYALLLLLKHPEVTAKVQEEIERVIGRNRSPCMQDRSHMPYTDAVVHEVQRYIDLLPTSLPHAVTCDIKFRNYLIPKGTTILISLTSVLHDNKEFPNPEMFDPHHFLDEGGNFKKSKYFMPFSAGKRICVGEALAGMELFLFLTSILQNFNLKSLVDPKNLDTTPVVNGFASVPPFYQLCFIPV

SMILES | IC50 [1] [nM] | IC50 [2] [nM] | IC50 [3] [nM] | other results
CSc1nc(-c2ccc(F)cc2)c(-c2ccnc(F)c2)[nH]1 | 300 | 2800 | 3800 | –
CSc1nc(-c2ccc(F)cc2)c(-c2ccnc(NC(C)=O)c2)n1C | 75 | 1100 | 500 | inhibition at 10 µM [4]: 32.4%; inhibition at 10 µM [5]: 27.6%; inhibition at 10 µM [6]: 13.4%; IC50 [7]: 12500 nM; inhibition at 10 µM [8]: 20.3%; IC50 [9]: 10800 nM; inhibition at 10 µM [10]: 16.5%
CSc1nc(-c2ccc(F)cc2)c(-c2ccnc(O)c2)[nH]1 | 500 | 3100 | – | –
Fc1ccc(-c2[nH]c(SCc3ccccc3)nc2-c2ccnc(NCc3ccccc3)c2)cc1 | 200 | 3200 | 1420 | –
CCNc1cc(-c2c(-c3ccc(F)cc3)nc(SC)n2C2CC(C)(C)NC(C)(C)C2)ccn1 | 620 | 2900 | 220 | IC50 [7]: 11000 nM; IC50 [9]: 2700 nM
Fc1ccc(-c2nc(SCc3ccccc3)[nH]c2-c2ccnc(F)c2)cc1 | 2900 | 40500 | 4200 | –
CSc1nc(-c2ccc(F)cc2)c(-c2ccnc(NCCc3ccccc3)c2)[nH]1 | 31 | 350 | 240 | –
CSc1nc(-c2ccnc(NC(C)c3ccccc3)c2)c(-c2ccc(F)cc2)n1C (stereo unspecified) | – | – | 27000 | –
CCNc1cc(-c2c(-c3ccc(F)cc3)nc(SC)n2C)ccn1 | 71 | 600 | 700 | IC50 [7]: 5000 nM; IC50 [9]: 2000 nM
CSc1nc(-c2ccc(F)cc2)c(-c2ccnc(N(Cc3ccccc3)Cc3ccccc3)c2)n1C | – | – | – | NA [11]: inactive; NA [12]: inactive
COc1ccc(CNc2cc(-c3[nH]c(SCc4ccccc4)nc3-c3ccc(F)cc3)ccn2)cc1 | 180 | 21000 | – | –
COc1cc(-c2[nH]c(SC)nc2-c2ccc(F)cc2)ccn1 | 150 | 1900 | – | –
CSc1nc(-c2ccc(F)cc2)c(-c2ccnc(NC(C)c3ccccc3)c2)n1C (stereo unspecified) | 15 | 110 | 220 | inhibition at 10 µM [4]: 57.1%; inhibition at 10 µM [5]: 83.3%; inhibition at 10 µM [6]: 12.4%; IC50 [7]: 3000 nM; inhibition at 10 µM [8]: 90.9%; IC50 [9]: 4100 nM; inhibition at 10 µM [10]: 85.8%
CCCn1c(SC)nc(-c2ccc(F)cc2)c1-c1ccncc1 | 360 | 1300 | 2200 | –
CCCn1c(SC)nc(-c2ccc(F)cc2)c1-c1ccnc(NC(C)=O)c1 | 120 | 490 | – | –
CSc1nc(-c2ccc(F)cc2)c(-c2ccncc2)[nH]1 | 44 | 900 | 630 | inhibition at 10 µM [4]: 43.5%; inhibition at 10 µM [5]: 72.4%; inhibition at 10 µM [6]: 39.8%; IC50 [7]: 4200 nM; inhibition at 10 µM [8]: 79.5%; IC50 [9]: 1200 nM; inhibition at 10 µM [10]: 81.4%
CCCn1c(SC)nc(-c2ccc(F)cc2)c1-c1ccnc(NCC)c1 | 150 | 430 | – | –
CSc1nc(-c2ccc(F)cc2)c(-c2ccnc(NCc3ccc(Cl)c(Cl)c3)c2)[nH]1 | 230 | 720 | 700 | –
CC(Nc1cc(-c2[nH]c(SCc3ccccc3)nc2-c2ccc(F)cc2)ccn1)c1ccccc1 (stereo unspecified) | 45 | 2700 | 380 | –
CSc1nc(-c2ccc(F)cc2)c(-c2ccnc(NCc3ccccc3)c2)[nH]1 | 108 | 630 | 650 | –
C[S+]([O-])c1ccc(CSc2nc(-c3ccc(F)cc3)c(-c3ccnc(F)c3)[nH]2)cc1 (stereo unspecified) | 2450 | 6900 | 9300 | –
CSc1nc(-c2ccc(F)cc2)c(-c2ccncc2)n1C1CC(C)(C)NC(C)(C)C1 | 850 | 16000 | 17000 | inhibition at 10 µM [4]: 9%; inhibition at 10 µM [5]: 7.9%; inhibition at 10 µM [6]: 19.1%; IC50 [7]: 19100 nM; inhibition at 10 µM [8]: 15.3%; IC50 [9]: 18500 nM; inhibition at 10 µM [10]: 49.6%

SMILES | IC50 [1] [nM] | IC50 [2] [nM] | IC50 [3] [nM] | other results
CSc1nc(-c2ccc(F)cc2)c(-c2ccnc(OC(C)C)c2)[nH]1 | 47 | 400 | 560 | inhibition at 10 µM [4]: 83.2%; inhibition at 10 µM [5]: 67.5%; inhibition at 10 µM [6]: < 0%; IC50 [7]: 7200 nM; inhibition at 10 µM [8]: 62.6%; IC50 [9]: 2200 nM; inhibition at 10 µM [10]: 49.6%
COc1ccc(CNc2cc(-c3[nH]c(SC)nc3-c3ccc(F)cc3)ccn2)cc1 | 56 | 640 | 790 | –
COc1ccc(C(=O)Nc2cc(-c3c(-c4ccc(F)cc4)nc(SC)n3C)ccn2)cc1 | 440 | 640 | – | –
CC(Nc1cc(-c2[nH]c(SCc3ccc([S+](C)[O-])cc3)nc2-c2ccc(F)cc2)ccn1)c1ccccc1 (stereo unspecified) | 40 | 910 | 270 | –
CSc1nc(-c2ccc(F)cc2)c(-c2ccnc(N(C)Cc3ccccc3)c2)[nH]1 | 2700 | 4600 | 8700 | –
CSc1nc(-c2ccc(F)cc2)c(-c2ccnc(NC(C)=O)c2)n1C1CC(C)(C)NC(C)(C)C1 | 460 | 4500 | 340 | inhibition at 10 µM [4]: < 0%; inhibition at 10 µM [5]: 2.6%; inhibition at 10 µM [6]: 14.6%; IC50 [7]: 5400 nM; inhibition at 10 µM [8]: 7.6%; IC50 [9]: 2150 nM; inhibition at 10 µM [10]: 79%
CCCn1c(SC)nc(-c2ccc(F)cc2)c1-c1ccnc(N)c1 | 500 | 5400 | – | –
CSc1nc(-c2ccc(F)cc2)c(-c2ccncc2)n1C | 450 | 2200 | 2200 | IC50 [7]: 5100 nM; IC50 [9]: 1080 nM
C[S+]([O-])c1ccc(CSc2nc(-c3ccc(F)cc3)c(-c3ccncc3)[nH]2)cc1 (stereo unspecified) | 380 | 1100 | – | inhibition at 10 µM [4]: 8.4%; inhibition at 10 µM [5]: 72.7%; inhibition at 10 µM [6]: 71.8%; inhibition at 10 µM [8]: 73.6%; inhibition at 10 µM [10]: 87.1%
CSc1nc(-c2ccc(F)cc2)c(-c2ccnc(NCc3ccccc3)c2)n1C | 82 | 580 | 930 | –
CSc1nc(-c2ccc(F)cc2)c(-c2ccnc(Cl)c2)[nH]1 | 350 | 2200 | – | inhibition at 10 µM [4]: 92.6%; inhibition at 10 µM [5]: 65%; inhibition at 10 µM [6]: 18.6%; inhibition at 10 µM [8]: 41.4%; inhibition at 10 µM [10]: 48.8%
CSc1nc(-c2ccc(F)cc2)c(-c2ccnc(NCc3ccc(Cl)cc3)c2)[nH]1 | 150 | 500 | 950 | –
C[S+]([O-])c1ccc(CSc2nc(-c3ccc(F)cc3)c(-c3ccnc(Cl)c3)[nH]2)cc1 (stereo unspecified) | 2100 | 12000 | – | –
C[S+]([O-])c1ccc(-c2nc(-c3ccncc3)c(-c3ccc(F)cc3)[nH]2)cc1 (stereo unspecified) [SB-203580] | – | – | – | inhibition at 10 µM [4]: 61%; inhibition at 10 µM [5]: 75%; inhibition at 10 µM [6]: 67%; inhibition at 10 µM [8]: 85%; inhibition at 10 µM [10]: 61%
CSc1nc(-c2ccc(F)cc2)c(-c2ccnc(NCc3ccc(C)cc3)c2)[nH]1 | 85 | 670 | 830 | –
C[S+]([O-])c1ccc(CSc2nc(-c3ccc(F)cc3)c(-c3ccnc(NCc4ccccc4)c3)[nH]2)cc1 (stereo unspecified) | 470 | 2000 | 1450 | –
CSc1nc(-c2ccnc(O)c2)c(-c2ccc(F)cc2)n1C | 7200 | 31300 | – | –
CSc1nc(-c2ccc(F)cc2)c(-c2ccnc(N)c2)n1C | 270 | 3200 | 2300 | –
CSc1nc(-c2ccc(F)cc2)c(-c2ccnc(Nc3ccccc3)c2)[nH]1 | 30 | 340 | 130 | –
CSc1nc(-c2ccc(F)cc2)c(-c2ccnc(NC(C)c3ccccc3)c2)[nH]1 (stereo unspecified) | – | – | – | inhibition at 10 µM [4]: 66.7%; inhibition at 10 µM [5]: 79%; inhibition at 10 µM [6]: 31.1%; inhibition at 10 µM [8]: 83.5%; inhibition at 10 µM [10]: 79.2%
Fc1ccc(-c2nc(SCc3ccccc3)[nH]c2-c2ccnc(Cl)c2)cc1 | 1800 | 60000 | – | –

— ChEMBL document CHEMBL1145851, “Novel substituted pyridinyl imidazoles as potent anticytokine agents with low activity against hepatic cytochrome P450 enzymes” (J Med Chem, 2003)
